ChEMBL document CHEMBL5113436, “WCK 4034: A promising oxazolidinone for treating gram positive infections” (Bioorg Med Chem Lett, 2022)
Values after ≈ are worked out from the molar mass of the structure shown.

Columns and labels:
Staphylococcus aureus [1] = assay: Antibacterial activity against methicillin-sensitive Staphylococcus aureus Sta-001 incubated for 18 hrs by CLSI protocol based two-fold serial agar dilution method; assay type: functional
Staphylococcus aureus [2] = assay: Antibacterial activity against methicillin-resistant Staphylococcus aureus Sta-032 incubated for 18 hrs by CLSI protocol based two-fold serial agar dilution method; assay type: functional
Streptococcus pneumoniae = assay: Antibacterial activity against Streptococcus pneumoniae ATCC 49619 incubated for 18 hrs by CLSI protocol based two-fold serial agar dilution method; assay type: functional
Haemophilus influenzae = assay: Antibacterial activity against Haemophilus influenzae […] ATCC 35054 incubated for 18 hrs by CLSI protocol based two-fold serial agar dilution method; assay type: functional
Staphylococcus aureus [3] = assay: Antibacterial activity against Staphylococcus aureus Sta-5027 infected in Swiss mouse model of septicemia administered by oral route 1 h and 5 h post-infection; assay type: functional; details: Sta-5027, 168 h, time 7 day
Staphylococcus aureus [4] = assay: Antibacterial activity against Linezolid-resistant Staphylococcus aureus Sta-5059 incubated for 18 hrs by CLSI protocol based two-fold serial agar dilution method; assay type: functional
Staphylococcus aureus [5] = assay: Antibacterial activity against Linezolid-resistant Staphylococcus aureus Sta-5060 incubated for 18 hrs by CLSI protocol based two-fold serial agar dilution method; assay type: functional
[6] = Cmax in Wistar rat at 15 mg/kg, iv; assay type: ADME, organism-based; set-up: dose 15 mg/kg, route iv; details: in vivo
[7] = Cmax in Wistar rat at 30 mg/kg, iv; assay type: ADME, organism-based; set-up: dose 30 mg/kg, route iv; details: in vivo
[8] = Cmax in Beagle dog at 15 mg/kg, iv; assay type: ADME, organism-based, Canis lupus familiaris; set-up: dose 15 mg/kg, route iv; details: in vivo
[9] = AUC in Wistar rat at 15 mg/kg, iv; assay type: ADME, organism-based; set-up: dose 15 mg/kg, route iv; details: in vivo
[10] = AUC in Beagle dog at 15 mg/kg, iv; assay type: ADME, organism-based, Canis lupus familiaris; set-up: dose 15 mg/kg, route iv; details: in vivo
[11] = Terminal half life in Wistar rat at 30 mg/kg, iv; assay type: ADME, organism-based; details: in vivo
[12] = Terminal half life in Beagle dog at 15 mg/kg, iv; assay type: ADME, organism-based, Canis lupus familiaris; details: in vivo
[13] = Volume of distribution in Wistar rat at 15 mg/kg, iv; assay type: ADME, organism-based; details: in vivo
[14] = Volume of distribution in Wistar rat at 30 mg/kg, iv; assay type: ADME, organism-based; details: in vivo
[15] = Clearance in Wistar rat at 15 mg/kg, iv; assay type: ADME, organism-based; details: in vivo
[16] = Clearance in Wistar rat at 30 mg/kg, iv; assay type: ADME, organism-based; details: in vivo
[17] = Clearance in Beagle dog at 15 mg/kg, iv; assay type: ADME, organism-based, Canis lupus familiaris; details: in vivo
[18] = AUC in Beagle dog at 15 mg/kg, iv; details: in vivo

Compound | MIC (Staphylococcus aureus [1]) [µg/mL] | MIC (Staphylococcus aureus [2]) [µg/mL] | MIC (Streptococcus pneumoniae) [µg/mL] | MIC (Haemophilus influenzae) [µg/mL] | ED50 (Staphylococcus aureus [3]) [mg/kg] | further results
O=C1O[C@@H](Cn2ccnn2)CN1c1cc(F)c(N2CCC3(OCCO3)C(F)C2)c(F)c1 (some centres undefined) | 8 (≈ 18.2 µM) | 4 (≈ 9.1 µM) | 2 (≈ 4.55 µM) | > 16 |  | 
CC(=O)NC[C@H]1CN(c2cc(F)c(N3CCC4(OCCO4)C(F)C3)c(F)c2)C(=O)O1 (some centres undefined) | 2 (≈ 4.66 µM) | 2 (≈ 4.66 µM) | > 4 | 16 (≈ 37.3 µM) | < 5 | MIC (Staphylococcus aureus [4]): > 8 µg/mL; MIC (Staphylococcus aureus [5]): > 8 µg/mL
CC(=O)NC[C@H]1CN(c2ccc(N3CCC4(CC3)SCCS4)c(F)c2)C(=O)O1 | 8 (≈ 18.8 µM) | 4 (≈ 9.4 µM) | 2 (≈ 4.7 µM) | > 16 | > 20 | 
CC(=O)NC[C@H]1CN(c2ccc(N3CCC4(OCCO4)C(F)C3)c(F)c2)C(=O)O1 (some centres undefined) | 12.5 (≈ 30.4 µM) | 4 (≈ 9.72 µM) | 2 (≈ 4.86 µM) |  | 5 | 
CC(=O)NC[C@H]1CN(c2ccc(N3CCC4(CC3)OCCS4(=O)=O)c(F)c2)C(=O)O1 | > 32 | > 32 | 2 (≈ 4.53 µM) | 16 (≈ 36.2 µM) |  | 
CC(=O)NC[C@H]1CN(c2ccc(N3CCC4(CCO4)CC3)c(F)c2)C(=O)O1 | 16 (≈ 42.4 µM) | 6.25 (≈ 16.6 µM) | 4 (≈ 10.6 µM) | > 16 | 20 | 
CS(=O)(=O)OC[C@H]1CN(c2ccc(N3CCC4(OCCO4)C(F)C3)c(F)c2)C(=O)O1 (some centres undefined) | 12.5 (≈ 27.9 µM) | 6.25 (≈ 13.9 µM) | 4 (≈ 8.92 µM) |  | > 10 | 
CC(=O)NC[C@H]1CN(c2ccc(N3CCC4(CC3)NCCO4)c(F)c2)C(=O)O1 | 2 (≈ 5.1 µM) | 2 (≈ 5.1 µM) | 2 (≈ 5.1 µM) | 8 (≈ 20.4 µM) | 20 | 
CC(=O)NC[C@H]1CN(c2ccc(N3CCC4(OCCO4)C(F)C3)cc2)C(=O)O1 (some centres undefined) | 16 (≈ 40.7 µM) | 8 (≈ 20.3 µM) | 4 (≈ 10.2 µM) | > 16 | 5 | 
CC(=O)NC[C@H]1CN(c2ccc(N3CCC4(CC3)COCCCO4)c(F)c2)C(=O)O1 | 8 (≈ 19 µM) | 4 (≈ 9.49 µM) | 4 (≈ 9.49 µM) | > 16 | 10 | 
CC(=O)NC[C@H]1CN(c2ccc(N3CCCC4(C3)OCCO4)c(F)c2)C(=O)O1 | 4 (≈ 10.2 µM) | 4 (≈ 10.2 µM) | 4 (≈ 10.2 µM) | 16 (≈ 40.7 µM) | 5 | 
CC(=O)NC[C@H]1CN(c2ccc(N3CCC4(CC3)COCO4)c(F)c2)C(=O)O1 | 4 (≈ 10.2 µM) | 4 (≈ 10.2 µM) | 2 (≈ 5.08 µM) | > 16 | 5 | 
CC(=O)NC[C@H]1CN(c2ccc(N3CCC4(CC3)OCCCCO4)c(F)c2)C(=O)O1 | 16 (≈ 38 µM) | 16 (≈ 38 µM) | 4 (≈ 9.49 µM) | > 16 |  | 
CC(=O)NC[C@H]1CN(c2ccc(N3CCOCC3)c(F)c2)C(=O)O1 [LINEZOLID] |  |  |  | 4 (≈ 11.9 µM) | 2.5 | MIC (Staphylococcus aureus [4]): > 8 µg/mL; MIC (Staphylococcus aureus [5]): > 8 µg/mL; Cmax [6]: 8700 ng/mL; Cmax [7]: 27300 ng/mL; Cmax [8]: 1620 ng/mL; AUC [9]: 1.24 µg·h/kg; AUC [10]: 19.9 µg·h/kg; beta t1/2 ([11]; iv, 30 mg/kg): 2.23 h; beta t1/2 [12]: 1.3 h; Vd [13]: 0.4 L/kg; Vd ([14]; iv, 30 mg/kg): 17.82 L/kg; CL [15]: 34 mL/min/kg; CL ([16]; iv, 30 mg/kg): 9.33 mL/min/kg; CL [17]: 3.17 mL/min/kg; AUC [18]: 78.2 µg·h/mL
CC(=O)NC[C@H]1CN(c2ccc(N3CCC4(CC3)OCC(C)(C)CO4)c(F)c2)C(=O)O1 | 16 (≈ 36.7 µM) | 16 (≈ 36.7 µM) | 8 (≈ 18.4 µM) | > 16 |  | 
CC(=O)NC[C@H]1CN(c2cc(F)c(N3CCC4(OCCO4)[C@H](F)C3)c(F)c2)C(=O)O1 | 8 (≈ 18.6 µM) | 8 (≈ 18.6 µM) | 2 (≈ 4.66 µM) | 16 (≈ 37.3 µM) | 2.5 | MIC (Staphylococcus aureus [4]): > 8 µg/mL; MIC (Staphylococcus aureus [5]): > 8 µg/mL
CC(=O)NC[C@H]1CN(c2ccc(N3CCC4(CC3)OCC[S+]4[O-])c(F)c2)C(=O)O1 (some centres undefined) | 4 (≈ 9.4 µM) | 4 (≈ 9.4 µM) | 2 (≈ 4.7 µM) | 8 (≈ 18.8 µM) | 10 | 
CC(=O)NC[C@H]1CN(c2ccc(N3CCC4(CC3)OCC(C)(C)O4)c(F)c2)C(=O)O1 |  | 8 (≈ 19 µM) |  |  | > 20 | 
CC(=O)NC[C@H]1CN(c2ccc(N3CCC4(CC3)OCCS4)c(F)c2)C(=O)O1 | 4 (≈ 9.77 µM) | 4 (≈ 9.77 µM) | 4 (≈ 9.77 µM) | > 16 | 10 | 
CC(=O)NC[C@H]1CN(c2ccc(N3CCC4(CC3)CO4)c(F)c2)C(=O)O1 | 4 (≈ 11 µM) | 4 (≈ 11 µM) | 4 (≈ 11 µM) | 16 (≈ 44 µM) |  | 
O=C1O[C@@H](Cn2ccnn2)CN1c1ccc(N2CCC3(OCCO3)C(F)C2)c(F)c1 (some centres undefined) | 16 (≈ 38 µM) | 3.12 (≈ 7.4 µM) | 4 (≈ 9.49 µM) | > 16 |  | 
CS(=O)(=O)NC[C@H]1CN(c2ccc(N3CCC4(OCCO4)C(F)C3)c(F)c2)C(=O)O1 (some centres undefined) | > 32 | 32 (≈ 71.5 µM) | > 8 | > 16 | > 30 | 
CC(=O)NC[C@H]1CN(c2ccc(N3CCC4(CC3)COCCO4)c(F)c2)C(=O)O1 | 4 (≈ 9.82 µM) | 4 (≈ 9.82 µM) | 2 (≈ 4.91 µM) | > 16 | > 10 | 
CC(=O)NC[C@H]1CN(c2ccc(N3CCC4(OCCO4)C(C)C3)c(F)c2)C(=O)O1 (some centres undefined) | 32 (≈ 78.5 µM) | 32 (≈ 78.5 µM) | 8 (≈ 19.6 µM) | > 16 |  | 
CC(=O)NC[C@H]1CN(c2ccc(N3CCC4(OCCO4)C(C)(C)C3)c(F)c2)C(=O)O1 |  | 12.5 (≈ 29.7 µM) | 4 (≈ 9.49 µM) | 2 (≈ 4.75 µM) |  | 
CC(=O)NC[C@H]1CN(c2ccc(N3CCC4(CC3)OCCO4)c(F)c2)C(=O)O1 | 4 (≈ 10.2 µM) | 4 (≈ 10.2 µM) | 4 (≈ 10.2 µM) | 16 (≈ 40.7 µM) | 5 | 
CC(=O)NC[C@H]1CN(c2ccc(N3CCC4(CC3)NCCS4)c(F)c2)C(=O)O1 | 4 (≈ 9.79 µM) | 4 (≈ 9.79 µM) | 2 (≈ 4.9 µM) | 8 (≈ 19.6 µM) | 5 | 
CC(=O)NC[C@H]1CN(c2cc(F)c(N3CCC4(OCCO4)[C@@H](F)C3)c(F)c2)C(=O)O1 | 2 (≈ 4.66 µM) | 2 (≈ 4.66 µM) | 1 (≈ 2.33 µM) | > 16 | 2.5 | MIC (Staphylococcus aureus [4]): > 8 µg/mL; MIC (Staphylococcus aureus [5]): > 8 µg/mL; Cmax [6]: 2370 ng/mL; Cmax [7]: 10800 ng/mL; Cmax [8]: 7100 ng/mL; AUC [9]: 7.32 µg·h/kg; AUC [10]: 6.9 µg·h/kg; half-life ([11]; Wistar, read-out: beta t1/2 (converted)): 7.1 h; beta t1/2 [12]: 4.01 h; Vd [13]: 0.4 L/kg; Vd ([14]; Wistar, read-out: Vd): 9.66 L/kg; CL [15]: 220.3 mL/min/kg; clearance ([16]; Wistar): 30.3 mL/min/kg; CL [17]: 1.7 mL/min/kg; AUC [18]: 135 µg·h/mL
CC(=O)NC[C@H]1CN(c2ccc(N3CCC4(CC3)OCC(C)O4)c(F)c2)C(=O)O1 (some centres undefined) |  | 8 (≈ 19.6 µM) |  |  | > 20 | 
